Data taken from patent US20260078130A1, “NAMPT MODULATORS, PREPARATIONS, AND USES THEREOF” (SIRONAX LTD., priority 2022, published 2026).

Biological target: T1, human enzyme NAMPT (full length) (Homo sapiens, UniProt P43490)
T1 construct: human enzyme NAMPT (full length)
Test: NMN fluorescence biochemical assay (stimulation of NMN synthesis by NAMPT)
Settings: for EC50: NMN synthesis by purified human NAMPT (100 nM), concentration giving half-maximal activation, read-out: Enzymatic EC50; for Enzymatic Emax: fold change of maximal activation compared to DMSO
Protocol: Certain compounds described herein were assayed for their ability to stimulate the synthesis of nicotinamide mononucleotide (NMN) by human enzyme NAMPT (full length). The enzymatic assay was performed in a 384-well plate using a TMD buffer (50 mM Tris-HCl, 10 mM MgCl2, 2 mM DTT, pH 7.5). Purified NAMPT (100 nM) was pre-incubated with 0.2 μL. DMSO solution of the test compound (with a series of concentrations) in 10 μL TMD buffer for 15 min at 37° C. The reaction was initiated by adding 10 μL solution of NAM (50 μM), PRPP (100 μM), and ATP (4 mM) in TMD buffer. After 1 h of incubation at 37 T, an aliquot (20 μL) of the NMN-containing sample was sequentially mixed with 5 μL of 20% acetophenone (in DMSO) and 5 μL of 2M KOH. The mixture was placed on ice for 10 min. Next, 22.5 μL of 100% formic acid was added to each sample, vortexed, and then incubated at 37° C. for 20 min. Fluorescence (Ex/Em=382/445 nm) was measured using an Envision plate reader. The potency measurements for the test compounds were quantified and represented as EC50 (concentration of a compound that gives half-maximal activation) and Emax (fold change of a compound's maximal activation compared to DMSO).

T1 sequence (P43490 whole entry): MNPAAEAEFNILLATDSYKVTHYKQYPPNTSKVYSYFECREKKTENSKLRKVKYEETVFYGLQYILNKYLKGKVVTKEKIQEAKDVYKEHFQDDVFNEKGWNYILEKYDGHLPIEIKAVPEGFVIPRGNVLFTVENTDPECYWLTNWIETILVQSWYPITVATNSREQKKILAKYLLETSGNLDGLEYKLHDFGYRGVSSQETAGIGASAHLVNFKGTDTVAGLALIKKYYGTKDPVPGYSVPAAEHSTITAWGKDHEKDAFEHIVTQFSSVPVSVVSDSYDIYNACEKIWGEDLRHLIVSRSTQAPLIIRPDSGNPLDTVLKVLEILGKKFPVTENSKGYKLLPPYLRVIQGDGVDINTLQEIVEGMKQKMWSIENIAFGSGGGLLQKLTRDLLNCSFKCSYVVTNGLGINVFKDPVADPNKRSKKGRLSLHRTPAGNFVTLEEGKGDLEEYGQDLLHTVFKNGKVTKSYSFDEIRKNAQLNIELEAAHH

Row | Compound | EC50 [µM] | Enzymatic Emax
1 | O=C1c2ccccc2C(Cc2cc(F)ccn2)N1Cc1ccc2[nH]c(=O)oc2c1 (centres unmarked) [Compound 233, 6-((1-((4-fluoropyridin-2-yl)methyl)-3-oxoisoindolin-2-yl)methyl)benzo[d]oxazol-2(3H)-one] | 0.5 to 5 | B (3≥B>2)
2 | O=C1c2ccccc2C(Cc2ncccc2Br)N1Cc1ccn2cnnc2c1 (centres unmarked) [Compound 239, 2-([1,2,4]triazolo[4,3-a]pyridin-7-ylmethyl)-3-((3-bromopyridin-2-yl)methyl)isoindolin-1-one] | ≥ 5 | B (3≥B>2)
3 | CC1c2cccc(-c3cccnc3)c2C(=O)N1Cc1ccc2[nH]c(=O)oc2c1 (centres unmarked) [Compound 244, 6-((1-methyl-3-oxo-4-(pyridin-3-yl)isoindolin-2-yl)methyl)benzo[d]oxazol-2(3H)-one] | ≥ 5 | B (3≥B>2)
4 | CC1c2c(cccc2C2CC2)C(=O)N1Cc1ccc2[nH]c(=O)oc2c1 (centres unmarked) [Compound 245, 6-((4-cyclopropyl-3-methyl-1-oxoisoindolin-2-yl)methyl)benzo[d]oxazol-2(3H)-one] | ≥ 5 | B (3≥B>2)
5 | Cc1cccc2c1C(C)N(Cc1ccc3[nH]c(=O)oc3c1)C2=O (centres unmarked) [Compound 246, 6-((3,4-dimethyl-1-oxoisoindolin-2-yl)methyl)benzo[d]oxazol-2(3H)-one] | ≥ 5 | B (3≥B>2)
6 | CC1c2c(Br)cccc2C(=O)N1Cc1ccc2[nH]c(=O)oc2c1 (centres unmarked) [Compound 247, 6-((4-bromo-3-methyl-1-oxoisoindolin-2-yl)methyl)benzo[d]oxazol-2(3H)-one] | ≥ 5 | B (3≥B>2)
7 | Cc1conc1CC1c2ccccc2C(=O)N1Cc1ccc2[nH]c(=O)oc2c1 (centres unmarked) [Compound 248, 6-((1-((4-methylisoxazol-3-yl)methyl)-3-oxoisoindolin-2-yl)methyl)benzo[d]oxazol-2(3H)-one] | 0.5 to 5 | A (A>3)
8 | Cn1cnc(CC2c3ccccc3C(=O)N2Cc2ccc3[nH]c(=O)oc3c2)c1Cl (centres unmarked) [Compound 249, 6-((1-((5-chloro-1-methyl-1H-imidazol-4-yl)methyl)-3-oxoisoindolin-2-yl)methyl)benzo[d]oxazol-2(3H)-one] | < 0.5 | A (A>3)
9 | Cn1cc(Cl)c(CC2c3ccccc3C(=O)N2Cc2ccc3[nH]nnc3c2)n1 (centres unmarked) [Compound 250, 2-((1H-benzo[d][1,2,3]triazol-5-yl)methyl)-3-((4-chloro-1-methyl-1H-pyrazol-3-yl)methyl) isoindolin-1-one] | < 0.5 | B (3≥B>2)
10 | Cn1ncc(Cl)c1CC1c2ccccc2C(=O)N1Cc1ccc2[nH]c(=O)oc2c1 (centres unmarked) [Compound 251, 6-((1-((4-chloro-1-methyl-1H-pyrazol-5-yl)methyl)-3-oxoisoindolin-2-yl)methyl)benzo[d]oxazol-2(3H)-one] | < 0.5 | A (A>3)
11 | O=C1c2ccccc2C(CC2CCCC2)N1Cc1ccc2[nH]c(=O)oc2c1 (centres unmarked) [Compound 252, 6-((1-(cyclopentylmethyl)-3-oxoisoindolin-2-yl)methyl)benzo[d]oxazol-2(3H)-one] | 0.5 to 5 | B (3≥B>2)
12 | NC(=O)c1ccc(CC2c3ccccc3C(=O)N2Cc2ccc3[nH]c(=O)oc3c2)cc1 (centres unmarked) [Compound 253, 4-((3-oxo-2-((2-oxo-2,3-dihydrobenzo[d]oxazol-6-yl)methyl)isoindolin-1-yl)methyl) benzamide] | ≥ 5 | A (A>3)
13 | COc1nc2cc(CN3C(=O)c4ccccc4C3Cc3ncccc3Br)ccc2[nH]1 (centres unmarked) [Compound 254, 3-((3-bromopyridin-2-yl)methyl)-2-((2-methoxy-1H-benzo[d]imidazol-5-yl)methyl) isoindolin-1-one] | 0.5 to 5 | B (3≥B>2)
14 | O=C1c2ccccc2C(Cc2ncccc2Br)N1Cc1ccc2[nH]c(Cl)nc2c1 (centres unmarked) [Compound 255, 3-((3-bromopyridin-2-yl)methyl)-2-((2-chloro-1H-benzo[d]imidazol-5-yl)methyl) isoindolin-1-one] | 0.5 to 5 | A (A>3)
15 | Nn1c(=O)oc2cc(CN3C(=O)c4ccccc4C3Cc3ncccc3Br)ccc21 (centres unmarked) [Compound 256, 3-Amino-6-((1-((3-bromopyridin-2-yl)methyl)-3-oxoisoindolin-2-yl)methyl)benzo[d]oxazol-2(3H)-one] | ≥ 5 | A (A>3)
16 | O=C1c2ccccc2C(COc2cccc(Cl)n2)N1Cc1ccc2[nH]c(=O)oc2c1 (centres unmarked) [Compound 260, 6-((1-(((6-chloropyridin-2-yl)oxy)methyl)-3-oxoisoindolin-2-yl)methyl)benzo[d]oxazol-2(3H)-one] | 0.5 to 5 | B (3≥B>2)
17 | Cc1ccnnc1CC1c2ccccc2C(=O)N1Cc1ccc2[nH]c(=O)oc2c1 (centres unmarked) [Compound 261, 6-((1-((4-methylpyridazin-3-yl)methyl)-3-oxoisoindolin-2-yl)methyl)benzo[d]oxazol-2(3H)-one] | 0.5 to 5 | A (A>3)
18 | O=C1c2ccccc2C(Cc2ccc(Br)cn2)N1Cc1ccc2[nH]c(=O)oc2c1 (centres unmarked) [Compound 262, 6-((1-((5-bromopyridin-2-yl)methyl)-3-oxoisoindolin-2-yl)methyl)benzo[d]oxazol-2(3H)-one] | 0.5 to 5 | A (A>3)
19 | Cc1ccnc(Cl)c1CC1c2ccccc2C(=O)N1Cc1ccc2[nH]c(=O)oc2c1 (centres unmarked) [Compound 263, 6-((1-((2-chloro-4-methylpyridin-3-yl)methyl)-3-oxoisoindolin-2-yl)methyl)benzo[d]oxazol-2(3H)-one] | < 0.5 | A (A>3)
20 | NC(=O)c1cccc(CC2c3ccccc3C(=O)N2Cc2ccc3[nH]c(=O)oc3c2)c1 (centres unmarked) [Compound 264, 3-((3-oxo-2-((2-oxo-2,3-dihydrobenzo[d]oxazol-6-yl)methyl)isoindolin-1-yl)methyl) benzamide] | 0.5 to 5 | B (3≥B>2)
21 | CC1c2cc(Cl)ccc2C(=O)N1Cc1ccc2[nH]c(=O)oc2c1 (centres unmarked) [Compound 265, 6-((5-chloro-3-methyl-1-oxoisoindolin-2-yl)methyl)benzo[d]oxazol-2(3H)-one] | ≥ 5 | A (A>3)
22 | O=C1c2ccccc2C(Cc2ncccc2Br)N1Cc1cc[nH]c(=O)c1 (centres unmarked) [Compound 266, 3-((3-bromopyridin-2-yl)methyl)-2-((2-oxo-1,2-dihydropyridin-4-yl)methyl)isoindolin-1-one] | ≥ 5 | A (A>3)
23 | O=C1c2ccccc2C(Cc2ncccc2Br)N1Cc1ccc(O)cn1 (centres unmarked) [Compound 267, 3-((3-bromopyridin-2-yl)methyl)-2-((5-hydroxypyridin-2-yl)methyl)isoindolin-1-one] | 0.5 to 5 | A (A>3)
24 | O=C1c2ccccc2C(Cc2ncccc2Br)N1Cc1ccc2[nH]cnc2c1 (centres unmarked) [Compound 268, 2-((1H-benzo[d]imidazol-5-yl)methyl)-3-((3-bromopyridin-2-yl)methyl)isoindolin-1-one] | 0.5 to 5 | A (A>3)
25 | Nc1nnc2cc(CN3C(=O)c4ccccc4C3Cc3ncccc3Br)ccn12 (centres unmarked) [Compound 269, 2-((3-amino-[1,2,4]triazolo[4,3-a]pyridin-7-yl)methyl)-3-((3-bromopyridin-2-yl)methyl) isoindolin-1-one] | ≥ 5 | B (3≥B>2)
